Assay results: patent publication US6914045B2, “Glycopeptide antibiotics” (Wyeth Holdings Corporation, priority 2001, dated 2005)
≈ marks a conversion by molar mass, not a printed value.

Legend:
Assay in all cases: in vitro antibacterial evaluation, MIC by broth dilution
Type in all cases: cell-based
Enterococcus sp. = settings: broth dilution, 18 hours at 35° C.
How it was run: (§1)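 Inoculum 5×10^5 CFU/mL; concentrations 64 to 0.06 μg/mL; MIC defined as lowest inhibitory level. Conducted by broth dilution under NCCLS guidelines.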

Escherichia coli = tested on: Escherichia coli
How it was run: as §1

Staphylococcus sp. = settings: broth dilution, 18 hours at 35° C.; for MIC Staphylococcus aureus (GC 1131): strain GC 1131
How it was run: as §1

Streptococcus sp. = settings: broth dilution, 18 hours at 35° C.
How it was run: as §1

MIC Enterococcus avium (GC 4558) (Enterococcus sp.; Enterococcus avium (GC 4558)): 32 µg/mL (≈ 22 µM) | MIC Enterococcus faecalis (ATCC 29212) (Enterococcus sp.; Enterococcus faecalis (ATCC 29212)): 32 µg/mL (≈ 22 µM) | MIC Enterococcus faecalis (GC 2242) (Enterococcus sp.; Enterococcus faecalis (GC 2242)): 32 µg/mL (≈ 22 µM) | MIC Enterococcus faecalis (GC 2691) (Enterococcus sp.; Enterococcus faecalis (GC 2691)): 32 µg/mL (≈ 22 µM) | MIC Enterococcus faecalis (GC 3059) (Enterococcus sp.; Enterococcus faecalis (GC 3059)): 32 µg/mL (≈ 22 µM) | MIC Enterococcus faecalis (GC 4552) (Enterococcus sp.; Enterococcus faecalis (GC 4552)): 32 µg/mL (≈ 22 µM) | MIC Enterococcus faecalis (GC 4553) (Enterococcus sp.; Enterococcus faecalis (GC 4553)): 64 µg/mL (≈ 43.9 µM) | MIC Enterococcus faecalis (GC 4554) (Enterococcus sp.; Enterococcus faecalis (GC 4554)): 32 µg/mL (≈ 22 µM) | MIC Enterococcus faecalis (GC 6189) (Enterococcus sp.; Enterococcus faecalis (GC 6189)): 32 µg/mL (≈ 22 µM) | MIC Enterococcus faecium (GC 2243) (Enterococcus sp.; Enterococcus faecium (GC 2243)): 32 µg/mL (≈ 22 µM) | MIC Enterococcus faecium (GC 4556) (Enterococcus sp.; Enterococcus faecium (GC 4556)): 32 µg/mL (≈ 22 µM) | MIC Enterococcus faecium (GC 4557) (Enterococcus sp.; Enterococcus faecium (GC 4557)): 16 µg/mL (≈ 11 µM) | MIC Enterococcus faecalis (ATCC 29212) (Enterococcus sp.; strain ATCC 29212): 32 µg/mL (≈ 22 µM) | MIC Enterococcus faecalis (GC 2242) (Enterococcus sp.; strain GC 2242): 32 µg/mL (≈ 22 µM) | MIC Enterococcus faecium (GC 2243) (Enterococcus sp.; strain GC 2243): 32 µg/mL (≈ 22 µM) | MIC Enterococcus faecalis (GC 2691) (Enterococcus sp.; strain GC 2691): 32 µg/mL (≈ 22 µM) | MIC Enterococcus faecalis (GC 3059) (Enterococcus sp.; strain GC 3059): 32 µg/mL (≈ 22 µM) | MIC Enterococcus faecalis (GC 4552) (Enterococcus sp.; strain GC 4552): 32 µg/mL (≈ 22 µM) | MIC Enterococcus faecalis (GC 4553) (Enterococcus sp.; strain GC 4553): 64 µg/mL (≈ 43.9 µM) | MIC Enterococcus faecalis (GC 4554) (Enterococcus sp.; strain GC 4554): 32 µg/mL (≈ 22 µM) | MIC Enterococcus faecium (GC 4556) (Enterococcus sp.; strain GC 4556): 32 µg/mL (≈ 22 µM) | MIC Enterococcus faecium (GC 4557) (Enterococcus sp.; strain GC 4557): 16 µg/mL (≈ 11 µM) | MIC Enterococcus avium (GC 4558) (Enterococcus sp.; strain GC 4558): 32 µg/mL (≈ 22 µM) | MIC Enterococcus faecalis (GC 6189) (Enterococcus sp.; strain GC 6189): 32 µg/mL (≈ 22 µM) | MIC Escherichia coli (ATCC 25922) (Escherichia coli; strain ATCC 25922, 18 hours at 35° C.): >64 µg/mL | MIC Escherichia coli (GC 4559) (Escherichia coli; strain GC 4559, 18 hours at 35° C.): >64 µg/mL | MIC Escherichia coli (GC 4560) (Escherichia coli; strain GC 4560, 18 hours at 35° C.): 8 µg/mL (≈ 5.49 µM) | MIC Staphylococcus aureus (GC 1131) (Staphylococcus sp.; inoculum 5×10^5 CFU/mL): 16 µg/mL (≈ 11 µM) | MIC Staphylococcus aureus (ATCC 29213) (Staphylococcus sp.; strain ATCC 29213): 16 µg/mL (≈ 11 µM) | MIC Staphylococcus aureus (GC 1131) (Staphylococcus sp.): 16 µg/mL (≈ 11 µM) | MIC Staphylococcus aureus (GC 3051) (Staphylococcus sp.; strain GC 3051): 16 µg/mL (≈ 11 µM) | MIC Staphylococcus aureus (GC 3053) (Staphylococcus sp.; strain GC 3053): 32 µg/mL (≈ 22 µM) | MIC Staphylococcus aureus (GC 4541) (Staphylococcus sp.; strain GC 4541): 16 µg/mL (≈ 11 µM) | MIC Staphylococcus aureus (GC 4542) (Staphylococcus sp.; strain GC 4542): 16 µg/mL (≈ 11 µM) | MIC Staphylococcus aureus-SMITH (GC 4543) (Staphylococcus sp.; strain GC 4543): 8 µg/mL (≈ 5.49 µM) | MIC Staphylococcus aureus (GC 4544) (Staphylococcus sp.; strain GC 4544): 16 µg/mL (≈ 11 µM) | MIC Staphylococcus aureus (GC 4545) (Staphylococcus sp.; strain GC 4545): 8 µg/mL (≈ 5.49 µM) | MIC Coagulase Negative Staphylococcus (GC 4547) (Staphylococcus sp.; strain GC 4547): 8 µg/mL (≈ 5.49 µM) | MIC Coagulase Negative Staphylococcus (GC 4548) (Staphylococcus sp.; strain GC 4548): 8 µg/mL (≈ 5.49 µM) | MIC Coagulase Negative Staphylococcus (GC 4549) (Staphylococcus sp.; strain GC 4549): 8 µg/mL (≈ 5.49 µM) | MIC Coagulase Negative Staphylococcus (GC 4551) (Staphylococcus sp.; strain GC 4551): 16 µg/mL (≈ 11 µM) | MIC Coagulase Negative Staphylococcus (GC 6257) (Staphylococcus sp.; strain GC 6257): 8 µg/mL (≈ 5.49 µM) | MIC Staphylococcus aureus-SMITH (GC 4543) (Staphylococcus sp.; strain SMITH GC 4543): 8 µg/mL (≈ 5.49 µM) | MIC Streptococcus agalactiae (GC 4564) (Streptococcus sp.; Streptococcus agalactiae (GC 4564)): 8 µg/mL (≈ 5.49 µM) | MIC Streptococcus pneumoniae (ATCC 6301) (Streptococcus sp.; Streptococcus pneumoniae (ATCC 6301)): 2 µg/mL (≈ 1.37 µM) | MIC Streptococcus pneumoniae (GC 1894) (Streptococcus sp.; Streptococcus pneumoniae (GC 1894)): 0.5 µg/mL (≈ 0.343 µM) | MIC Streptococcus pneumoniae (GC 4565) (Streptococcus sp.; Streptococcus pneumoniae (GC 4565)): 2 µg/mL (≈ 1.37 µM) | MIC Streptococcus pyogenes (GC 4563) (Streptococcus sp.; Streptococcus pyogenes (GC 4563)): 4 µg/mL (≈ 2.74 µM) | MIC Streptococcus pneumoniae (ATCC 6301) (Streptococcus sp.; strain ATCC 6301): 2 µg/mL (≈ 1.37 µM) | MIC Streptococcus pneumoniae (GC 1894) (Streptococcus sp.; strain GC 1894): 0.5 µg/mL (≈ 0.343 µM) | MIC Streptococcus pyogenes (GC 4563) (Streptococcus sp.; strain GC 4563): 4 µg/mL (≈ 2.74 µM) | MIC Streptococcus agalactiae (GC 4564) (Streptococcus sp.; strain GC 4564): 8 µg/mL (≈ 5.49 µM) | MIC Streptococcus pneumoniae (GC 4565) (Streptococcus sp.; strain GC 4565): 2 µg/mL (≈ 1.37 µM)
Compound: CCOc1cc(C2OCC3OC(OC4C(CO)OC(Oc5ccc(CC6NC(=O)C(C(C)c7ccccc7)NC(=O)CNC(=O)C(CO)NC(=O)C(C(O)C7CNC(=N)N7C7OC(CO)C(O)C(O)C7O)NC(=O)C(C(O)C7CNC(=N)N7)NC6=O)cc5)C(O)C4O)C(O)C(O)C3O2)ccc1OC (stereo not drawn) [Example 152]
MIC Staphylococcus haemolyticus (GC 4546) (Staphylococcus sp.; strain GC 4546): 8 µg/mL (≈ 5.49 µM)
